Measured values as given in patent US20250296959A1, “B7-H3 TARGETING PEPTIDES AND CONSTRUCTS THEREOF” (Mariana Oncology Inc., priority 2024, published 2025).
Starred links: 1 amine or outer side, 2 acyl side, 3 side chain; linkers in the order of their positions; H or OH if unused. Positions of bridges follow the written chain, without caps; N, C: chain ends. Non-standard residues stand in square brackets, D forms with d. Residues, ends and D or L forms follow the SMILES beside them. Groups on a side chain read outwards from the residue. *: point of attachment. Ala(piperidin-4-yl) = O=C([C@H](CC1CCN([*:3])CC1)N[*:1])[*:2]; DOTA = O=C(O)CN1CCN(CC(=O)O)CCN(CC(=O)*)CCN(CC(=O)O)CC1; Phe(4-NHCONH2) = NC(=O)Nc1ccc(C[C@H](N)C(=O)O)cc1; Trp(5-F) = N[C@@H](Cc1c[nH]c2ccc(F)cc12)C(=O)O; X1 = C[C@@H](c1ccccc1)[C@H](N[*:1])C(=O)[*:2]; Ala(4-THP) = N[C@@H](CC1CCOCC1)C(=O)O; Val(3-OH) = CC(C)(O)[C@H](N)C(=O)O; PEG4 = NCCOCCOCCOCCOCCC(=O)O; Tle = CC(C)(C)[C@H](N)C(=O)O; hLeu = CC(C)CC[C@H](N)C(=O)O; βAla = NCCC(=O)O

target: T1, human 4lg B7-H3 (Homo sapiens, UniProt Q5ZPR3); experiment: Affinity determination by surface plasmon resonance (SPR) to 4Ig B7-H3; details: SPR KD—37° C., 4Ig B7-H3; 37° C. flow cell temperature
T1 sequence (Q5ZPR3 29-534): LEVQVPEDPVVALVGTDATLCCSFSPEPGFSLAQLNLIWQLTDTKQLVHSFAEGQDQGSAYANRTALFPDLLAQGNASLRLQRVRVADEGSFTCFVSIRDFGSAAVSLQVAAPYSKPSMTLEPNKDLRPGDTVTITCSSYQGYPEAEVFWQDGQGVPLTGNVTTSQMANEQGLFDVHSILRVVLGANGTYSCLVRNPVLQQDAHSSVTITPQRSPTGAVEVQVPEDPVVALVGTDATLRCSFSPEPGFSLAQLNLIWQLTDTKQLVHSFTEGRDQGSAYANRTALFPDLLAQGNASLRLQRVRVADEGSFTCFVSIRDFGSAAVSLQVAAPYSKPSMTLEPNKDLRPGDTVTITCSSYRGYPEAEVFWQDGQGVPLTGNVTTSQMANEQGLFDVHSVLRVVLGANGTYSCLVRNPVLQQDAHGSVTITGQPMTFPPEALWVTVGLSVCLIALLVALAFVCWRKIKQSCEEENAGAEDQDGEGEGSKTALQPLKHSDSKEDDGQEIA

Kd [nM]	Compound
< 1	CC(=O)N[C@@H](CCC(C)C)C(=O)N[C@@H](Cc1ccc(O)cc1)C(=O)N[C@H]1CSSC[C@@H](C(=O)N[C@@H](Cc2c[nH]c3ccc(F)cc23)C(=O)N[C@H](C(=O)N[C@H](C(=O)N[C@H](CCCCNC(=O)CN2CCN(CC(=O)O)CCN(CC(=O)O)CCN(CC(=O)O)CC2)C(=O)N[C@H](CCC(=O)O)C(=O)O)C(C)(C)O)[C@@H](C)c2ccccc2)NC(=O)[C@H](Cc2ccc(NC(N)=O)cc2)NC(=O)[C@H](C(C)C)NC(=O)[C@H](CC(=O)O)NC(=O)[C@H](CC2CCOCC2)NC(=O)[C@H](CC2CCNCC2)NC(=O)CNC(=O)[C@H](C(C)(C)C)NC1=O [compound 508, Ac-hLeu-Y-C-Tbg-G-PipAla-ThpA-D-V-Aph(Cbm)-C-5FW-[(2S, 3S)beta-Me-Phe]-hydroxyVal-dLys(DOTA)-dGlu-COOH] (Ac-[hLeu]YC[Tle]G[Ala(piperidin-4-yl)][Ala(4-THP)]DV[Phe(4-NHCONH2)]C[Trp(5-F)][X1][Val(3-OH)][dK](DOTA)[dE]-OH; disulfide 3-11)
< 1	CC(=O)N[C@@H](CCC(C)C)C(=O)N[C@@H](Cc1ccc(O)cc1)C(=O)N[C@H]1CSSC[C@@H](C(=O)N[C@@H](Cc2c[nH]c3ccc(F)cc23)C(=O)N[C@H](C(=O)N[C@H](C(=O)N[C@@H](CCCCNC(=O)CN2CCN(CC(=O)O)CCN(CC(=O)O)CCN(CC(=O)O)CC2)C(=O)O)C(C)(C)O)[C@@H](C)c2ccccc2)NC(=O)[C@H](Cc2ccc(O)cc2)NC(=O)[C@H](C(C)C)NC(=O)[C@H](CC(=O)O)NC(=O)[C@H](CC2CCOCC2)NC(=O)[C@H](CC2CCNCC2)NC(=O)CNC(=O)[C@H](C(C)(C)C)NC1=O [compound 509, Ac-hLeu-Y-C-Tbg-G-PipAla-ThpA-D-V-Y-C-5FW-[(2S, 3S)beta-Me-Phe]-hydroxyVal-Lys(DOTA)-COOH] (Ac-[hLeu]YC[Tle]G[Ala(piperidin-4-yl)][Ala(4-THP)]DVYC[Trp(5-F)][X1][Val(3-OH)]K(DOTA)-OH; disulfide 3-11)
< 1	CC(=O)N[C@@H](CCC(C)C)C(=O)N[C@@H](Cc1ccc(O)cc1)C(=O)N[C@H]1CSSC[C@@H](C(=O)N[C@@H](Cc2c[nH]c3ccc(F)cc23)C(=O)N[C@H](C(=O)N[C@H](C(=O)NCC(=O)O)C(C)(C)O)[C@@H](C)c2ccccc2)NC(=O)[C@H](Cc2ccc(O)cc2)NC(=O)[C@H](C(C)C)NC(=O)[C@H](CC(=O)O)NC(=O)[C@H](CC2CCN(C(=O)CCOCCOCCOCCOCCNC(=O)CN3CCN(CC(=O)O)CCN(CC(=O)O)CCN(CC(=O)O)CC3)CC2)NC(=O)[C@H](CC2CCNCC2)NC(=O)CNC(=O)[C@H](C(C)(C)C)NC1=O [compound 510, Ac-hLeu-Y-C-Tbg-G-PipAla-Pip(PEG4-DOTA)Ala-D-V-Y-C-5FW-[(2S, 3S)beta-Me-Phe]-hydroxyVal-Gly-COOH] (Ac-[hLeu]YC[Tle]G[Ala(piperidin-4-yl)][Ala(piperidin-4-yl)]([PEG4-DOTA])DVYC[Trp(5-F)][X1][Val(3-OH)]G-OH; disulfide 3-11)
< 1	CC(=O)N[C@@H](CCC(C)C)C(=O)N[C@@H](Cc1ccc(O)cc1)C(=O)N[C@H]1CSSC[C@@H](C(=O)N[C@@H](Cc2c[nH]c3ccc(F)cc23)C(=O)N[C@H](C(=O)N[C@H](C(=O)NCCC(=O)O)C(C)(C)O)[C@@H](C)c2ccccc2)NC(=O)[C@H](Cc2ccc(O)cc2)NC(=O)[C@H](C(C)C)NC(=O)[C@H](CC(=O)O)NC(=O)[C@H](CC2CCN(C(=O)CCOCCOCCOCCOCCNC(=O)CN3CCN(CC(=O)O)CCN(CC(=O)O)CCN(CC(=O)O)CC3)CC2)NC(=O)[C@H](CC2CCNCC2)NC(=O)CNC(=O)[C@H](C(C)(C)C)NC1=O [compound 511, Ac-hLeu-Y-C-Tbg-G-PipAla-Pip(PEG4-DOTA)Ala-D-V-Y-C-5FW-[(2S, 3S)beta-Me-Phe]-hydroxyVal-betaAla-COOH] (Ac-[hLeu]YC[Tle]G[Ala(piperidin-4-yl)][Ala(piperidin-4-yl)]([PEG4-DOTA])DVYC[Trp(5-F)][X1][Val(3-OH)][βAla]-OH; disulfide 3-11)
